Measurements taken from US20150368213A1, “Novel Inhibitors of System Xc-” (The University of Montana, Missoula, MT, priority 2014, published 2015).
Read-outs that look alike come from different tables or passages of the source.

Target: T1, System xc− (Sxc−, glutamate/cystine antiporter) (Homo sapiens, UniProt Q9UPY5)
T1 construct: A number of glioma cell lines, including SNB-19, express markedly higher levels of Sxc^−; host or cells: SNB-19 human glioma cells
T1 sequence (Q9UPY5 1-501): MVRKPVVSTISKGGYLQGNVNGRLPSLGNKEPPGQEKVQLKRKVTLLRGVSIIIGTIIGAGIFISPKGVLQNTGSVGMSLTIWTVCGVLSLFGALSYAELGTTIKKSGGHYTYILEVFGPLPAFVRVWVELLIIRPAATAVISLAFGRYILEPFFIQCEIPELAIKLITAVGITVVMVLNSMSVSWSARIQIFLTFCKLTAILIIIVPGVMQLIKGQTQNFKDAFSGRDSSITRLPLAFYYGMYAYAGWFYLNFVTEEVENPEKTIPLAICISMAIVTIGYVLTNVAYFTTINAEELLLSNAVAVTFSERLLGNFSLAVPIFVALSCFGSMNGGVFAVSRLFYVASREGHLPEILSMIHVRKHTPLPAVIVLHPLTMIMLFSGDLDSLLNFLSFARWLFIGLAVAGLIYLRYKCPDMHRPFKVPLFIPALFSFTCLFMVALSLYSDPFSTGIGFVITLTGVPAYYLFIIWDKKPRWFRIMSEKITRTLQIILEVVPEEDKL
T1 sequence (P08195 1-529 partner): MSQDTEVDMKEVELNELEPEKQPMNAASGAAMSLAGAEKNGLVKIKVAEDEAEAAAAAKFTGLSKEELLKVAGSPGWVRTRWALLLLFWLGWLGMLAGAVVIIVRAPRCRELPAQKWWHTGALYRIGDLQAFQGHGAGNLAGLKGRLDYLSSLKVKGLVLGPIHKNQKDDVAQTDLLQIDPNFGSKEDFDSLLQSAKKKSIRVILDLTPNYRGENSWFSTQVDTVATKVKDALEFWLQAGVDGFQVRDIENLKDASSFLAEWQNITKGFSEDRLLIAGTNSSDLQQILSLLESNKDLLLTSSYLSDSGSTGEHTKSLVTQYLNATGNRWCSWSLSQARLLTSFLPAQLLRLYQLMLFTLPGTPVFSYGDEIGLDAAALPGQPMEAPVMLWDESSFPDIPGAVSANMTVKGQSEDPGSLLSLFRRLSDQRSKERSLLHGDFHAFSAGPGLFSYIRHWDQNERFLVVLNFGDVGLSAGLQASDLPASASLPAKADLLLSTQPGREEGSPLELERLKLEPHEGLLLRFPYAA
Experiment: Inhibition of 3H-L-Glu uptake into SNB-19 glioma cells under Cl-dependent (Na-free) conditions
Assay type: cell-based
Conditions: for 3H-L-Glu Uptake (% control): 100 μM 3H-L-Glu, smaller number = greater inhibition; for inhibitory activity, ranking among compounds of Table 1: comment on Table 1
Method: SNB-19 glioma cells, purchased from American Type Culture Collection (Manassas, Va.), were grown in DMEM/F-12 medium (pH 7.4) containing 1 mM pyruvate and 16 mM NaHCO3 and supplemented with 10% fetal calf serum. The cells were cultured in 150 cm^2 flasks (Corning) and maintained at 37° C. in a humidified atmosphere of 5% CO2. In the ^3H-L-Glu uptake experiments, cells were seeded in 12 well culture plates (Costar) at a density of 5×10^4 cells/well and maintained for 3 days until 80-90% confluent. Protein concentrations were determined by the bicinchoninic acid (BCA) method (Pierce).
Uptake of ^3H-L-Glu into cultured cells was quantified using a modification of the procedure of Martin and Shane as previously described by Patel et al. (supra). Briefly, after removal of culture media, wells were rinsed three times and pre-incubated in 1 ml Na^+-free HEPES buffered (pH 7.4) Hank's balanced salt solution (HBHS) at 30° C. for 5 min. The Nat free buffer contained: 137.5 mM choline Cl, 5.36 mM KCl, 0.77 mM KH2PO4, 0.71 mM MgSO^4.7H2O, 1.1 mM CaCl2, 10 mM D-glucose, and 10 mM HEPES. Uptake was initiated by aspiration of the pre-incubation buffer and the addition of a 500 gl aliquot of Na^+-free transport buffer containing ^3H-L-Glu (4-16 mCi/m1) mixed with L-Glu (10-500 μM, final concentration). In those assays that evaluated inhibitor activity, the 500 gl aliquot of transport buffer contained both the ^3H-L-Glu and potential inhibitors to ensure simultaneous addition. Following a 5 min incubation at 30° C., the assays were terminated by three sequential 1 ml washes with ice cold buffer after which the cells were dissolved in 1 ml of 0.4 M NaOH for 24 h. An aliquot (200 μl) was then transferred into a 5 ml glass scintillation vial and neutralized with the addition of 5 gl glacial acetic acid followed by 3.5 ml Liquiscint© scintillation fluid (National Diagnostics) to each sample. Incorporation of radioactivity was quantified by liquid scintillation counting (LSC, Beckman LS 6500). Values are reported as mean±S.E.M. and are corrected for non-specific uptake (e.g., leakage and binding) by subtracting the amount of ^3H-L-Glu accumulation at 4° C.
The inhibitory activity of the compounds was determined by quantifying the ability of the analogues to reduce the accumulation of ^3H-L-Glu into human SNB-19 glioblastoma cells under Cl-dependent (Na-free) conditions. A number of glioma cell lines, including SNB-19, express markedly higher levels of Sxc^− and reduced levels of the sodium-dependent excitatory amino acid transporters (“EAATs”) than do primary astrocytes, making them well suited for pharmacological assays (Ye et al., Compromised glutamate transport in human glioma cells: reduction-mislocalization of sodium-dependent glutamate transporters and enhanced activity of cystine-glutamate exchange, J Neurosci, 1999 Dec. 15, 19(24), 10767-77). The compounds of the invention were initially screened at a single concentration of substrate (100 μM ^3H-L-Glu) and isoxazole (500 μM) to confirm inhibitory activity. […] (The data are reported as % of control uptake, thus the smaller the number the greater the level of inhibition.)
A slope replot for 5-4-TFM-Benzyl-4-bis-TFM-HMICA is included in FIG. 3, (average Ki=3±1 μM, n=5). […] In the instance of 5-4-TFM-Benzyl-4-bis-TFM-HMICA the replot of I/Vmax,apparent vs. [I] was indeed linear and yielded a Ki of about 8 μM (plots not shown). […] As the identification of the di-substituted isoxazoles as noncompetitive inhibitors was unexpected, the kinetic data was also analyzed using the Eadie-Hofstee method as a second graphical approach.

[1] = SNB-19 cells, 3H-L-Glu uptake, read-out: KI 3H-L-Glu Uptake

| SMILES | pattern (mechanism) of inhibition (Michaelis-Menten, LWB and Eadie-Hofstee analyses, FIGS. 1-4) | 3H-L-Glu Uptake (% control) (compound 100 μM, SNB-19 cells) | Ki (replot of LWB graphs, plots not shown, read-out: Ki from 1/Vmax,apparent vs. [I] replot) | Ki (slope replot (FIG. 3), n=5, read-out: average Ki from LWB slope vs. [I] replot) | Ki [1] | inhibitory activity, ranking among compounds of Table 1 | 3H-L-Glu Uptake (% control) (compound 500 μM, SNB-19 cells) | inhibition of the System Xc- antiporter, in words (statement in the crystal structure description) |
| --- | --- | --- | --- | --- | --- | --- | --- | --- |
| C/C(=N\Nc1cc(C(F)(F)F)cc(C(F)(F)F)c1)c1c(C(=O)O)noc1Cc1ccc(C(F)(F)F)cc1 [5-4-TFM-Benzyl-4-bis-TFM-HMICA] | noncompetitive inhibition | 14 % control | ~8 µM | 3 ± 1 µM |  |  |  |  |
| Cc1onc(-c2c3ccccc3c(Cl)c3ccccc23)c1C(=O)NC(Cc1cc(Br)c(O)c(Br)c1)C(=O)O (centres unmarked) [AIM-DBT, 2-(3-(10-chloroanthracen-9-yl)-5-methylisoxazole-4-carboxamido)-3-(3,5-dibromo-4-hydroxyphenyl)propanoic acid] |  | 8 % control |  |  | 15 µM | greatest inhibitory activity |  |  |
| Cc1onc(-c2c(OCc3ccccc3)ccc3ccccc23)c1C(=O)N[C@@H](Cc1cc(Br)c(O)c(Br)c1)C(=O)O [Compound 3ND-101, (2S)-2-(3-(2-(benzyloxy)naphthalen-1-yl)-5-methylisoxazole-4-carboxamido)-3-(3,5-dibromo-4-hydroxyphenyl)propanoic acid] |  | 8 % control |  |  |  | greatest inhibitory activity | 1 % control |  |
| CN(C)c1cccc2c(S(=O)(=O)NC(Cc3cc(Br)c(O)c(Br)c3)C(=O)O)cccc12 (centres unmarked) [Danzyl-DBT, 3-(3,5-dibromo-4-hydroxyphenyl)-2-(5-(dimethylamino)naphthalene-1-sulfonamido)propanoic acid] |  | 52 % control |  |  | 25 µM |  |  |  |

More lines, now with the values ahead:

| pattern (mechanism) of inhibition (Michaelis-Menten, LWB and Eadie-Hofstee analyses, FIGS. 1-4) | 3H-L-Glu Uptake (% control) (compound 100 μM, SNB-19 cells) | Ki (replot of LWB graphs, plots not shown, read-out: Ki from 1/Vmax,apparent vs. [I] replot) | Ki (slope replot (FIG. 3), n=5, read-out: average Ki from LWB slope vs. [I] replot) | Ki [1] | inhibitory activity, ranking among compounds of Table 1 | 3H-L-Glu Uptake (% control) (compound 500 μM, SNB-19 cells) | inhibition of the System Xc- antiporter, in words (statement in the crystal structure description) | SMILES |
| --- | --- | --- | --- | --- | --- | --- | --- | --- |
|  | 23 % control |  |  |  |  | 6 % control |  | Cc1onc(-c2cccc3ccccc23)c1C(=O)NC(Cc1cc(Br)c(O)c(Br)c1)C(=O)O (centres unmarked) [LC-19, 3-(3,5-dibromo-4-hydroxyphenyl)-2-(5-methyl-3-(naphthalen-1-yl)isoxazole-4-carboxamido)propanoic acid] |
|  | 32 % control |  |  |  |  | 8 % control | potent inhibitor | COc1ccc2ccccc2c1-c1noc(C)c1C(=O)NC(Cc1cc(Br)c(O)c(Br)c1)C(=O)O (centres unmarked) [MOI-16, 3-(3,5-dibromo-4-hydroxyphenyl)-2-(5-methyl-3-(2-methoxynaphthalen-1-yl)isoxazole-4-carboxamido)propanoic acid] |
